These results are taken from PMC9331150 (ACS Medicinal Chemistry Letters, 2022).

One test has as its target HCoV 229E 3CL^pro (Human coronavirus 229E, UniProt P0C6U2). The test can be described thus: biochemical. The format is biochemical.
Another test has as its system HCoV 229E. The format is cell-based.
A further test deals with rhinovirus infection. Conditions: cited from earlier work.
In another test the test system is SARS-CoV-2. Conditions: read-out: EC50 against SARS-CoV-2; human bronchial epithelial cells; cited from earlier work.
The target in another test is SARS-CoV-2 3CL^pro (Severe acute respiratory syndrome coronavirus 2, UniProt P0DTD1). The class given is biochemical.

Bounds are passed on as bounds.

Chain of HCoV 229E 3CL^pro (P0C6U2 2966-3267): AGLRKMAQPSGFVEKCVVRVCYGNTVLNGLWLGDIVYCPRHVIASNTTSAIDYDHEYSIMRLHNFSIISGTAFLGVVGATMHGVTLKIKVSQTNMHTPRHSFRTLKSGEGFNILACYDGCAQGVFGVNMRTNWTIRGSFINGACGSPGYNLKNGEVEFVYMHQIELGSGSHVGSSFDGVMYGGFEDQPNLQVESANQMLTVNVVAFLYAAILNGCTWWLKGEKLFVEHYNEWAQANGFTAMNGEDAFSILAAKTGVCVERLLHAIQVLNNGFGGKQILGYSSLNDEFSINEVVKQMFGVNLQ

For orientation: IC50 means the concentration needed to halve the response being measured. At HCoV 229E 3CL^pro, `CC(C)(C)[C@H](NC(=O)C(F)(F)F)C(=O)N1C[C@H]2[C@@H]([C@H]1C(=O)NCCC1CCNC1=O)C2(C)C` (stereo partly drawn) [Compound 1] showed a concentration for half-maximal inhibition (IC50) of over 100 µM.

`CC(C)(C)[C@H](NC(=O)C(F)(F)F)C(=O)N1C[C@H]2[C@@H]([C@H]1C(=O)N[C@H](C=O)C[C@@H]1CCNC1=O)C2(C)C` [Compound 2]: at HCoV 229E 3CL^pro (IC50 ratio vs nirmatrelvir), the “fold inhibitory activity improvement for HCoV 229E 3CL^pro compared to nirmatrelvir” value was 9 fold. For the same compound, in the test with HCoV 229E, the “fold less potent than nirmatrelvir (EC50, cell-based HCoV 229E)” value was about 4 fold.

For `CC(C)(C)[C@H](NC(=O)C(F)(F)F)C(=O)N1C[C@H]2[C@@H]([C@H]1C(=O)N[C@@H](C[C@@H]1CCNC1=O)C(N)=O)C2(C)C` [Compound 4], the IC50 against HCoV 229E 3CL^pro was over 100 µM.

With `CCOC(=O)/C=C/[C@H](C[C@@H]1CCNC1=O)NC(=O)[C@@H](CC(=O)[C@@H](NC(=O)c1cc(C)on1)C(C)C)Cc1ccc(F)cc1` [rupintrivir], the “efficacy against rhinovirus infection in phase 2 clinical trials” value with rhinovirus infection was “lack of efficacy”.

For the compound `CC(C)(C)[C@H](NC(=O)C(F)(F)F)C(=O)N1C[C@H]2[C@@H]([C@H]1C(=O)N[C@@H](C[C@@H]1CCNC1=O)C(=O)COCc1ccccc1)C2(C)C` [Compound 9], on HCoV 229E 3CL^pro, the “fold less potent than nirmatrelvir against HCoV 229E 3CL^pro (IC50)” value is reported as 3 fold. Further, in the test with HCoV 229E, the “fold less potent than nirmatrelvir (EC50, cell-based HCoV 229E)” value is recorded as “approximately 2 fold”.

What is called EC50 is the concentration that produces a half-maximal response. `CC(C)(C)[C@H](NC(=O)C(F)(F)F)C(=O)N1C[C@H]2[C@@H]([C@H]1C(=O)N[C@H](C#N)C[C@@H]1CCNC1=O)C2(C)C` [Nirmatrelvir]: the EC50 with SARS-CoV-2 was 0.075 µM.

Consider `COC(=O)[C@H](C[C@@H]1CCNC1=O)NC(=O)[C@@H]1[C@@H]2[C@H](CN1C(=O)[C@@H](NC(=O)C(F)(F)F)C(C)(C)C)C2(C)C` [Compound 6], for which the IC50 on HCoV 229E 3CL^pro was over 100 µM.

For the compound `CC(C)(C)[C@H](NC(=O)C(F)(F)F)C(=O)N1C[C@H]2[C@@H]([C@H]1C(=O)N[C@H](CO)C[C@@H]1CCNC1=O)C2(C)C` [Compound 3], the IC50 at HCoV 229E 3CL^pro was over 100 µM.

Turning to `CC(C)(C)[C@H](NC(=O)C(F)(F)F)C(=O)N1C[C@H]2[C@@H]([C@H]1C(=O)N[C@@H](C[C@@H]1CCNC1=O)C(=O)C(=O)NC1CC1)C2(C)C` [Compound 8], the “fold improvement / more potent than nirmatrelvir (IC50, SARS-CoV-2 and HCoV 229E 3CL^pro)” value on SARS-CoV-2 3CL^pro is reported as “approximately 2 fold”. For the same compound, in the test on HCoV 229E, the “fold less potent than nirmatrelvir (EC50, cell-based HCoV 229E)” value worked out at 11 fold.
